Experimental data taken from the Kinase Knowledgebase extract (Sharma et al. 2016).

Target: EGFR (UniProt P00533)
Assay: not given

Sequence of EGFR (P00533 whole entry, looked up): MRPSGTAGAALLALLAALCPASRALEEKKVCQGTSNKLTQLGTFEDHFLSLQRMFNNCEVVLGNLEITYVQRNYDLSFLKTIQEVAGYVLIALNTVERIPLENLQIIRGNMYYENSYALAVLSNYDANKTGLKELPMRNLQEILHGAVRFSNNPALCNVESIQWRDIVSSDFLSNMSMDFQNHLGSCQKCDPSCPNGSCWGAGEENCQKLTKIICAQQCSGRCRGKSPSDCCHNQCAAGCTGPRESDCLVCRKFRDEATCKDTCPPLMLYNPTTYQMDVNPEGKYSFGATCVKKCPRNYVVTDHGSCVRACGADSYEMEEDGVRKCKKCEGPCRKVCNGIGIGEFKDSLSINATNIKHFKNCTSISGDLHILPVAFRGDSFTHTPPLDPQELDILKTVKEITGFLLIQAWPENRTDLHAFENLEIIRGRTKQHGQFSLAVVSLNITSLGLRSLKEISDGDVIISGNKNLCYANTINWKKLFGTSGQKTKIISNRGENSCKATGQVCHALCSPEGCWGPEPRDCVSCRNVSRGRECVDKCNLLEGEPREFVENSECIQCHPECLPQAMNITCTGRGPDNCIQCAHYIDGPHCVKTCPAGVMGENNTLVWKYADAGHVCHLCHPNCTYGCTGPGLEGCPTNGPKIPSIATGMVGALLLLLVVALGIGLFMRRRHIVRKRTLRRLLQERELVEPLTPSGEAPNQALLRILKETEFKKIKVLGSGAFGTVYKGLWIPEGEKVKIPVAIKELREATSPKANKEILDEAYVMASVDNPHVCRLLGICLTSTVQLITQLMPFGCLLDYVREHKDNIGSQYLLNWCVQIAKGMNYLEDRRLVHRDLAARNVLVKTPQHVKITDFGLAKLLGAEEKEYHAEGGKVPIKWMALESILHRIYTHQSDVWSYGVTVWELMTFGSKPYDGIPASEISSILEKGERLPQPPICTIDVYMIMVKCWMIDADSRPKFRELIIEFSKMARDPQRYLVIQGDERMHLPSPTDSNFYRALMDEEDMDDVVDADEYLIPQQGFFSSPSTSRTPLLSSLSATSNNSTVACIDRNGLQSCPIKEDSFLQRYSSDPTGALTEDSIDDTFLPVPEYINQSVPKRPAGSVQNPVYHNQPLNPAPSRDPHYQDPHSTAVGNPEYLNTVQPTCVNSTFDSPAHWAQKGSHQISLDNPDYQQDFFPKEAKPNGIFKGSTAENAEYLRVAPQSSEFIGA

Row | IC50 [nM] | Compound
1 | 100000 | CC(C)(N)[C@H]1CC[C@H](C(=O)Nc2ccncc2)CC1

Target: ROCK2 (UniProt O75116)
Assay: Inhibition of ROCK2 Kinase Activity

Sequence of ROCK2 (O75116 whole entry, looked up): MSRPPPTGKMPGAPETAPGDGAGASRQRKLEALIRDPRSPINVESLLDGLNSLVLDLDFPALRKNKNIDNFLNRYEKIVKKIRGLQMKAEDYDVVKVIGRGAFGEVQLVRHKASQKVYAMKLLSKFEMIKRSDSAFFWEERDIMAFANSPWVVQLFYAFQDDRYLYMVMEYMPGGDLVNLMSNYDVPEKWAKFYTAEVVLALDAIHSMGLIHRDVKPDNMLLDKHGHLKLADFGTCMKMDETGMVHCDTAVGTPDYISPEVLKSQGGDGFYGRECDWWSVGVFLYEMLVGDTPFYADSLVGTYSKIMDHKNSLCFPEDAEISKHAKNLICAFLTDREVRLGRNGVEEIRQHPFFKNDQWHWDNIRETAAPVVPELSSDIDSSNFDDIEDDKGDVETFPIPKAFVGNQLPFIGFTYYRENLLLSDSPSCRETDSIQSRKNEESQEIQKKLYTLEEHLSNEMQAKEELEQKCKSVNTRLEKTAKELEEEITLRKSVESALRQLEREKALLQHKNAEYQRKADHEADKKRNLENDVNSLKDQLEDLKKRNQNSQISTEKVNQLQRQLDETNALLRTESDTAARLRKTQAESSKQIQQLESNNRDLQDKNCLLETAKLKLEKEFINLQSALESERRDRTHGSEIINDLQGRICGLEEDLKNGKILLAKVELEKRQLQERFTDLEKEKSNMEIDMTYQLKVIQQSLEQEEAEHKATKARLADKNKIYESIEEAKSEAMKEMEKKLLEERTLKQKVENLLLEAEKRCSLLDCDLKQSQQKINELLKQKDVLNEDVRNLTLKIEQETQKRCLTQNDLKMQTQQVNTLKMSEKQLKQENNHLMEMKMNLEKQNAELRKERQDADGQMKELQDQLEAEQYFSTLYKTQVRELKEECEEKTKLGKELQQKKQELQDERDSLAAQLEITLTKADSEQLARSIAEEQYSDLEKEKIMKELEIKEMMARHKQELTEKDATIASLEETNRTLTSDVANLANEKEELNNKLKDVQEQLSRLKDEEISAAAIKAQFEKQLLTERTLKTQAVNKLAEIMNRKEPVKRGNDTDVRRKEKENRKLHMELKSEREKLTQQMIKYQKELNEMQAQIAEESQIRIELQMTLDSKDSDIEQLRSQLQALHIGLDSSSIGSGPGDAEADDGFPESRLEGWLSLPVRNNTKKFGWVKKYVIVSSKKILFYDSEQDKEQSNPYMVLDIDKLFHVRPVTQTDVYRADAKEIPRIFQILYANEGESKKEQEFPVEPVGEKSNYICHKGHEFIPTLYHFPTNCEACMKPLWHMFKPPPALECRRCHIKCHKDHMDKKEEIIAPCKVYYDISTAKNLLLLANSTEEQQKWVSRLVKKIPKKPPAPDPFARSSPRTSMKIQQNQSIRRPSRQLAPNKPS

Row | IC50 [nM] | Compound
2 | 113 | CC[C@H]1CNCCCN1S(=O)(=O)c1cccc2cncc(C)c12
3 | 42.9 | C#Cc1cncc2cccc(S(=O)(=O)N3CCCN(C(=O)CN)C[C@@H]3C)c12
4 | 80.6 | Cc1cncc2cccc(S(=O)(=O)N3CCCNC(C)C3)c12 (stereo unspecified)
5 | 804 | Cc1cncc2cccc(S(=O)(=O)N3CCCNC[C@@H]3C(C)C)c12
6 | 162 | CC(C)(N)[C@H]1CC[C@H](C(=O)Nc2ccncc2)CC1
7 | 12.2 | C[C@H]1CNCCCN1S(=O)(=O)c1cccc2cncc(Cl)c12
8 | 123 | Cc1cncc2cccc(S(=O)(=O)N3CCNC(C)CC3)c12 (stereo unspecified)
9 | 5.83 | C[C@H]1CNCCCN1S(=O)(=O)c1cccc2cncc(Br)c12
10 | 11.8 | Cc1cncc2cccc(S(=O)(=O)N3CCCN(C(=O)CN)C[C@@H]3C)c12
11 | 656 | CCc1cncc2cccc(S(=O)(=O)N3CCCNC[C@@H]3C)c12
12 | 426 | C[C@H]1CNCCCN1S(=O)(=O)c1cccc2cncc(C#N)c12
13 | 6 | C#Cc1cncc2cccc(S(=O)(=O)N3CCCNC[C@@H]3C)c12
14 | 527 | NCC(=O)N1CCCN(S(=O)(=O)c2cccc3cnccc23)CC1
15 | 107 | Cc1cncc2cccc(S(=O)(=O)N3CCNCC(C)C3)c12 (stereo unspecified)
16 | 2750 | C[C@H]1CNCCCN1S(=O)(=O)c1cccc2cncc(O)c12
17 | 37.6 | Cc1cncc2cccc(S(=O)(=O)N3CCCN(C(=O)CN)CC3)c12
18 | 96.8 | Cc1cncc2cccc(S(=O)(=O)N3CCCNCC3)c12
19 | 42.9 | C[C@H]1CN(C(=O)CN)CCCN1S(=O)(=O)c1cccc2cncc(Br)c12

Target: MAPK14 (UniProt Q16539)
Sequence (Q16539 whole entry, looked up): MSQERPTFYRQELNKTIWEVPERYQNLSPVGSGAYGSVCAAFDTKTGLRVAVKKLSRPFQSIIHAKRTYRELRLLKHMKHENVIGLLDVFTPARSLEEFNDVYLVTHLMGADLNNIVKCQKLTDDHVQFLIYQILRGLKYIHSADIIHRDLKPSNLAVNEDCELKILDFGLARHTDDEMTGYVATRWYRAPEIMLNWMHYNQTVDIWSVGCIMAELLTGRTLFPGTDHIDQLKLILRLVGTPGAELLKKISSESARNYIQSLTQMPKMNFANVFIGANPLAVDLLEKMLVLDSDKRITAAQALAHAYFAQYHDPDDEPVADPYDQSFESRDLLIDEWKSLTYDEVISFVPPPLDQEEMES
Assay: Inhibition of MAPK14 Kinase Activity

Row | IC50 [nM] | Compound
20 | 100000 | Cc1cncc2cccc(S(=O)(=O)N3CCCNC[C@@H]3C)c12
21 | > 100000 | CC(C)(N)[C@H]1CC[C@H](C(=O)Nc2ccncc2)CC1
